# Tests used:
# catalase (CAT) [1] = experiment: Catalase activity in bovine aortic endothelial cells; type: cell-based; conditions: for CAT activity: n = 6, mean ± SEM
# Experimental: (§1) 1. In vitro Administration of compounds of Examples 1 or 2 (Compound 1 and Compound 2, respectively).
# (§2) Two different cell types, human gingival fibroblasts (Gin-1) and bovine aortic endothelial cells (CPA ATCl CCL207) were obtained from the American Type Culture Collection. They were incubated until confluent in Dulbecco's modified Eagles medium, supplemented with 2 mM glutamine and 10% heat-inactivated fetal calf serum at 37° C. in a humidified chamber with 5% CO2 in air. Compounds were dissolved in DMSO, diluted to 100 mM with distilled deionized H2 O, and further diluted with Dulbecco's medium (without fetal bovine serum), to desired concentrations. The usual time of incubation with the compounds of this invention was 24 hr at 37° C. in a humidified incubator with 5% CO2 in air. Lactic dehydrogenase (LDH) release was determined in several in vitro preparations as an index of cytotoxicity. using Sigma Diagnostic Kit #500. LDH release was expressed as a percentage of total LDH activity released from cells treated with 0.4% Triton X [Cabaud, P. G., Wroblewski, F. Am. J. Clin. Pathol. 30:234-236, (1958)].
# (§3) Prior to the enzymatic assays the Gin-1 cells and aortic endothelial cells were prepared as follows: cells were rinsed several times with phosphate buffered saline without Ca^+2 or Mg^+2, removed from the culture flasks with 0.25% trypsin, counted using a hemocytometer, and resuspended at 2-3×10^6 cells/ml in Dulbecco's medium without fetal calf serum. Cells were then disrupted by pulse sonication and centrifuged at 100,000 xg at 4° C. Total protein [Bradford, M. M., Anal. Biochem 72:248-254, (1976)] and enzyme activities were determined on the cell sonicates, using standard techniques, SOD activity was determined using the method of McCord and Fridovich [McCord, J., Fridovich I., J. Biol. Chem. 244:6049-6055, (1969)]. Catalase activity was measured using the method of Beers and Sizer [Beers, R. F., Sizer, I. W., J. Biol. Chem. 195:133-146, (1952)]. Glutathione peroxidase activity was determined by the method of Guenzler et al. [Guenzler, W. A., Kremers, H., Flohe, L., Z. Klin. Chem. Klin. Biochem. 12:444-448 (1974)].
# (§4) All enzyme activities were expressed as units of activity per mg protein. The data were compared by Student's t test [Snedecor, W. G., Statistical Methods, p. 45, (1964)]. The level of significance was taken as p<0.05.
# [2] = system: superoxide dismutase (SOD); experiment: SOD activity in bovine aortic endothelial cells; type: cell-based; conditions: for SOD activity: n = 10, mean ± SEM, * P < 0.05 vs 0 mM
# Experimental: as §1, §2, §3, §4
# [3] = system: glutathione peroxidase (GSH-PX); experiment: Glutathione peroxidase activity in Gin-1 human gingival fibroblasts; type: cell-based; conditions: Gin-1 cells
# Experimental: as §1, §2, §3, §4
# Gin-1 cells = experiment: LDH release from Gin-1 cells as index of cytotoxicity; type: cell-based, human
# Experimental: as §2
# [4] = as above; type: cell-based, human; conditions: human, % of total LDH released by 0.4% Triton X, mean ± SEM
# Experimental: as §2
# [5] = system: superoxide dismutase (SOD); experiment: SOD activity in rat heart, liver and lung after in vivo treatment
# Experimental: Male Lewis rats (250 g) were injected with 0.9% saline (controls) or Compound 1 (100 mg/kg) intraperitoneally twice a day for two days. Heart, liver and lungs were removed en bloc, dissected free of extraneous tissue, and blotted dry to remove contaminating blood. A portion of each tissue (approximately 0.5 g) was homogenized, and centrifuged at 500 xg for 10 minutes at 4° C. A 2 ml aliquot of supernatant was removed and centrifuged at 25,000 xg for 30 minutes. The supernatants were then decanted, and analyzed for SOD and CAT activities and total protein as described above.
# as §4
# [6] = system: glutathione peroxidase (GSH-PX); experiment: Glutathione peroxidase activity in bovine aortic endothelial cells; type: cell-based; conditions: for GSH-PX activity: n = 6, mean ± SEM
# Experimental: as §1, §2, §3, §4
# catalase (CAT) [7] = experiment: Catalase activity in Gin-1 human gingival fibroblasts; type: cell-based; conditions: Gin-1 cells; for CAT % Increase: vs untreated
# Experimental: as §1, §2, §3, §4
# [8] = system: polymorphonuclear leukocyte infiltration into ozone-exposed rat lungs; conditions: Bassett et al. 1988; cited from earlier work
# [9] = system: superoxide dismutase (SOD); experiment: SOD activity in Gin-1 human gingival fibroblasts; type: cell-based; conditions: Gin-1 cells; for SOD % Increase: vs untreated
# Experimental: as §1, §2, §3, §4
# [10] = system: superoxide dismutase (SOD) and catalase (CAT); experiment: Induction of antioxidant enzymes SOD and CAT in mammalian cells and in organs of rats; conditions: Gin-1 cells, 1.0 mM, 24 hours; either SOD or CAT, or both enzymes
# Experimental: as §1, §2
# as §3, with “Cells were then disrupted by pulse sonication and centrifuged at 100,000 xg at 4° C.” left out, “Chem. Klin. Biochem. 12:444-448 (1974)].” left out
# All enzyme activities were expressed as units of activity per mg protein. […]
# [11] = Compound 2, at one or more concentrations
smiles,measurement,setting,value
"O=C(NCCN1CCNC1=O)Nc1ccccc1 [Compound 1, 1-[2-(2-oxo-1-imidazolidinyl)ethyl]-3-phenylurea]",CAT activity,catalase (CAT) [1]; 0.05 mM (so in the source),27.1 ± 3.3 U/mg Protein
same,CAT activity,catalase (CAT) [1]; 0.25 mM,25.7 ± 3.6 U/mg Protein
same,CAT activity,"catalase (CAT) [1]; 1.0 mM, * P < 0.05 vs 0 mM",31.9 ± 2.4 U/mg Protein
same,Catalase activity (in words),catalase (CAT) [1]; highest concentration (1 mM) only,significantly increased at the highest concentration (1 mM) only
same,SOD activity,[2]; 0.05 mM (so in the source),9.5 ± 1.8 U/mg Protein
same,SOD activity,[2]; 0.25 mM,6.7 ± 0.8 U/mg Protein
same,SOD activity,[2]; 1.0 mM,12.2 ± 3.4 U/mg Protein
same,SOD activity (in words),[2]; concentration-dependent,significantly increased (P<0.05) in a concentration-dependent manner
same,GSH-PX activity (in words),[3],remained constant
same,GSH-PX activity,"[3]; 0.125 mM, n=6, mean ± SEM",52.1 ± 4.7 U/mg Protein
same,GSH-PX activity,"[3]; 0.25 mM, n=6, mean ± SEM",45.8 ± 3.5 U/mg Protein
same,GSH-PX activity,"[3]; 1.0 mM, n=6, mean ± SEM",45.1 ± 5.3 U/mg Protein
same,GSH-PX activity,"[3]; 2.0 mM, n=6, mean ± SEM",47.8 ± 3.8 U/mg Protein
same,Cytotoxicity as shown by LDH release (in words),Gin-1 cells,no indication of cytotoxicity
same,"cytotoxicity at 24 h, 125 µM",[4]; 0.125 mM,7 ± 2%
same,"cytotoxicity at 24 h, 1000 µM",[4]; 1.0 mM,8 ± 2%
same,"Tissue SOD Activity, Heart","[5]; rat heart, 100 mg/kg i.p. 2 × /day for 2 days, (8), mean ± SEM, * P < 0.05 vs saline control",194 ± 14 U/mg Protein
same,SOD activity in all three tissues (in words),"[5]; rat heart, liver, lung, compared with controls",induced SOD activity in all three tissues studied
same,"Tissue SOD Activity, Liver","[5]; rat liver, 100 mg/kg i.p. 2 × /day for 2 days, (8), mean ± SEM, * P < 0.05 vs saline control",444 ± 68 U/mg Protein
same,"Tissue SOD Activity, Lung","[5]; rat lung, 100 mg/kg i.p. 2 × /day for 2 days, (8), mean ± SEM, * P < 0.05 vs saline control",134 ± 7 U/mg Protein
same,GSH-PX activity (in words),[6],not significantly different
same,GSH-PX activity,[6]; 0.05 mM (so in the source),33.5 ± 3.2 U/mg Protein
same,GSH-PX activity,[6]; 0.25 mM,28.1 ± 5.7 U/mg Protein
same,GSH-PX activity,[6]; 1.0 mM,59.8 ± 17 U/mg Protein
same,CAT activity,"catalase (CAT) [7]; 0.125 mM, n=4, mean ± SEM, * P < 0.05 vs 0 mM",9.1 ± 1.1 U/mg Protein
same,CAT activity,"catalase (CAT) [7]; 0.25 mM, n=4, mean ± SEM, * P < 0.05 vs 0 mM",10.0 ± 1.8 U/mg Protein
same,CAT activity,"catalase (CAT) [7]; 1.0 mM, n=4, mean ± SEM, * P < 0.05 vs 0 mM",11.2 ± 2.0 U/mg Protein
same,CAT activity,"catalase (CAT) [7]; 2.0 mM, n=4, mean ± SEM, * P < 0.05 vs 0 mM",13.9 ± 1.6 U/mg Protein
same,CAT activity compared with controls (in words),catalase (CAT) [7]; 0.125-2.0 mM Compound 1,significantly increased (P<0.05)
same,Polymorphonuclear leukocyte infiltration into ozone-exposed rat lungs,[8],decreased polymorphonuclear leukocyte infiltration
same,SOD activity,"[9]; 0.125 mM, n=7, mean ± SEM, * P < 0.05 vs 0 mM",13.1 ± 1.5 U/mg Protein
same,SOD activity,"[9]; 0.25 mM, n=7, mean ± SEM, * P < 0.05 vs 0 mM",20.7 ± 3.3 U/mg Protein
same,SOD activity,"[9]; 1.0 mM, n=7, mean ± SEM, * P < 0.05 vs 0 mM",11.6 ± 1.4 U/mg Protein
same,SOD activity,"[9]; 2.0 mM, n=7, mean ± SEM, * P < 0.05 vs 0 mM",13.5 ± 1.7 U/mg Protein
same,SOD activity compared with controls (in words),[9]; 0.125-2.0 mM Compound 1,significantly increased (P<0.05)
"O=C(NCCN1CCNC1=O)Nc1ccc(F)cc1 [Compound 2, 1-[2-(2-oxo-1-imidazolidinyl)ethyl]-3-(4-fluorophenyl)urea]",GSH-PX activity (in words),[3],remained constant
same,GSH-PX activity,"[3]; Compound 2 table, 0.25 mM, n = 6, mean ± SEM",35.0 ± 1.4 U/mg Protein
same,GSH-PX activity,"[3]; Compound 2 table, 0.50 mM, n = 6, mean ± SEM",40.0 ± 4.7 U/mg Protein
same,GSH-PX activity,"[3]; Compound 2 table, 1.0 mM, n = 6, mean ± SEM",39.1 ± 4 U/mg Protein
same,CAT activity,"catalase (CAT) [7]; 0.25 mM, n=6, mean ± SEM",8.3 ± 0.8 U/mg Protein
same,CAT activity,"catalase (CAT) [7]; 0.50 mM, n = 6, mean ± SEM, * P < 0.05 vs 0 mM",11.4 ± 1.8 U/mg Protein
same,CAT activity,"catalase (CAT) [7]; 1.0 mM, n=6, mean ± SEM",9.5 ± 1.4 U/mg Protein
same,CAT activity (in words),catalase (CAT) [7]; [11],significantly increased (P<0.05) at one or more concentrations
same,SOD activity,"[9]; 0.25 mM, n = 8, mean ± SEM, * P < 0.05 vs 0 mM",15.2 ± 1.6 U/mg Protein
same,SOD activity,"[9]; 0.50 mM, n = 8, mean ± SEM, * P < 0.05 vs 0 mM",15.9 ± 1.7 U/mg Protein
same,SOD activity,"[9]; 1.0 mM, n = 8, mean ± SEM, * P < 0.05 vs 0 mM",14.5 ± 2.2 U/mg Protein
same,SOD activity (in words),[9]; [11],significantly increased (P<0.05) at one or more concentrations
O=C(NCCN1CCNC1=O)Nc1ccc(Cl)cc1 [Example 7],SOD and/or CAT activity (in words),[10],increased
same,CAT activity,"catalase (CAT) [7]; 1.0 mM, 24 hours, Table 5",3.6 ± 0.9 U/mg Protein
same,CAT % Increase,"catalase (CAT) [7]; 1.0 mM, 24 hours",95%
same,SOD activity,"[9]; 1.0 mM, 24 hours, Table 5",5.8 ± 1.2 U/mg Protein
same,SOD % Increase,"[9]; 1.0 mM, 24 hours",51%
O=C(NCCN1CCNC1=S)Nc1ccccc1 [Example 11],SOD and/or CAT activity (in words),[10],increased
same,"Effect on CAT activity, ranking among Ex. 7, 11, 12 (in words)","catalase (CAT) [7]; 1.0 mM, 24 hours",affected CAT the most
same,CAT activity,"catalase (CAT) [7]; 1.0 mM, 24 hours, Table 5",4.1 ± 1.6 U/mg Protein
same,CAT % Increase,"catalase (CAT) [7]; 1.0 mM, 24 hours",118%
same,"Effect on SOD activity, ranking among Ex. 7, 11, 12 (in words)","[9]; 1.0 mM, 24 hours",least effect on SOD activity
same,SOD activity,"[9]; 1.0 mM, 24 hours, Table 5",4.0 ± 0.8 U/mg Protein
same,SOD % Increase,"[9]; 1.0 mM, 24 hours",3%
O=C(Nc1ccccc1)NN1CCCOC1=O [Example 12],SOD and/or CAT activity (in words),[10],increased
same,"Effect on CAT activity, ranking among Ex. 7, 11, 12 (in words)","catalase (CAT) [7]; 1.0 mM, 24 hours",least effect on CAT
same,CAT activity,"catalase (CAT) [7]; 1.0 mM, 24 hours, Table 5",2.5 ± 0.6 U/mg Protein
same,CAT % Increase,"catalase (CAT) [7]; 1.0 mM, 24 hours",35%
same,"Effect on SOD activity, ranking among Ex. 7, 11, 12 (in words)","[9]; 1.0 mM, 24 hours",greatest effect on SOD
same,SOD activity,"[9]; 1.0 mM, 24 hours, Table 5",6.5 ± 0.9 U/mg Protein
same,SOD % Increase,"[9]; 1.0 mM, 24 hours",69%

# From patent US5001141A, “N-(2-(2-oxo-1-imidazolidinyl)ethyl)-3-phenyl-urea and analogs as agents for induction of antioxidant enzymes” (E. I. Du Pont de Nemours and Company, priority 1989, dated 1991)
